# Assays:
# [1] = system: Abeta oligomer-mediated memory deficits; assay: Fear conditioning assay (Example FF); assay type: in vivo; conditions: mice
# Method: CT0109 was tested in an animal model of a memory-dependent behavioral task known as fear conditioning. The study protocol was designed based on published protocols (See e.g. Puzzo D, Privitera L, Leznik E, FàM, Staniszewski A, Palmeri A, Arancio O. Picomolar amyloid-beta positively modulates synaptic plasticity and memory in hippocampus. J Neurosci. 2008 Dec. 31; 28(53):14537-45). The formation of contextual memories is dependent upon the integrity of medial temporal lobe structures such as the hippocampus. In this assay mice were trained to remember that a particular salient context (conditioned stimulus; CS) is associated with an aversive event, in this case a mild foot shock (the unconditioned stimulus, US). Animals that show good learning will express an increase in freezing behavior when placed back into the same context. This freezing is absent in a novel context. Increased freezing in the context indicates strong hippocampal-dependent memory formation in animals. Memory tested in Fear Conditioning is sensitive to elevations of soluble Aβ. […] The fear condition model for memory was performed as described herein.
# [2] = system: Abeta oligomer effects on membrane trafficking in primary rat neurons; assay: Primary neuron-based functional screening assay, membrane trafficking (Example EE); assay type: cell-based; conditions: for block of Abeta oligomer effects (decrease of intracellular formazan-filled vesicles): added to cultures prior to oligomer addition, FIG. 2A
# Text: Primary rat neurons grown for at least 3 weeks in vitro were chosen as the basis for this screening assay. […] More complex systems such as acute or organotypic brain slices are very useful but not amenable to high throughput screening. […] For this reason, primary neuronal cultures were chosen because of their ability to be used in high throughput screens and fidelity to what occurs in vivo.
# The MTT assay can be used as a measure of toxicity in cultures. Yellow tetrazolium salts were endocytosed by cells and reduced to insoluble purple formazan in the endosomal pathway. The level of purple formazan was a reflection of the number of actively metabolizing cells in culture, and reduction in the amount of formazan was taken as a measure of cell death or metabolic toxicity in culture.
# The exocytosis assay was adapted for use with mature primary neuronal cultures grown for 3 weeks in vitro.
# Compounds were added to neurons first, then oligomers were added.
# Data were the average of 3 experiments. Scale bar=20 micron in FIG. 2D.
# [3] = system: Abeta oligomer-induced acceleration of exocytosis in primary neurons; assay: Exocytosis assay/MTT assay (Example AA); assay type: cell-based; conditions: Rattus norvegicus, Primary neuron; 28 μM memantine, control; read-out: inhibition of oligomer effects
# Method: Primary neurons from E18 Sprague-Dawley rat embryos are plated at optimized concentrations in 384 well plates in NB media (Invitrogen). Neurons are maintained in cultures for 3 weeks, with twice weekly feeding of NB media with N2 supplement (Invitrogen). A test compound is added to cells, followed by addition of Vehicle or Abeta oligomer preparations (1.5 μM), and incubated for 1 to 24 hr at 37° C. in 5% CO2. MTT reagent (3-(4,5-dimethylthiazol-2-yl)-2,5diphenyl tetrazolium bromide) (Roche Molecular Biochemicals) is reconstituted in phosphate buffered saline to 5 mg/mL. 10 μL of MTT labeling reagent is added to each well and incubated at 37° C. for 1 h, then imaged. […]
# Optimal cell density is determined based on cellular response to Abeta oligomers using the exocytosis assay as a readout, and immunohistochemical analysis of the relative proportion of glia to neurons in the cultures. Cultures are monitored on a weekly basis with immunohistochemistry and image processing-based quantification to monitor the percentage of the cultures that are neurons vs. glia (Glial cells). […]
# Human amyloid peptide 1-42 is obtained from California Peptide, with lot-choice contingent upon quality control analysis. […] Toxicity is monitored in each image-based assay via quantification of nuclear morphology visualized with the DNA binding dye DAPI (Invitrogen). […]
compound,measurement,setting,value
"COc1cc(CCC(C)NCc2ccc(C(F)(F)F)cc2)ccc1O (stereo not drawn) [CT0109, 4-(3-(4-(trifluoromethyl)benzylamino)butyl)-2-methoxyphenol]",block of oligomer-mediated memory deficits at 2 pmol dose,"[1]; 2 pmol dose + Abeta (200 nM), FIG. 3 bar d, p<0.05",completely blocked
same,block of oligomer effects on memory,"[1]; administered prior to Abeta oligomer administration, across doses",blocked oligomer effects on memory in a dose-dependent manner
same,adverse behavioral changes,[1]; any dose,No adverse behavioral changes
same,effect of compound alone on memory,"[1]; without Abeta, data not shown",No effect
same,EC50,"[2]; Rattus norvegicus, Neuron, FIG. 2B, read-out: EC50, inhibition of oligomer effects on membrane trafficking",7 µM
C[C@]12N[C@H](Cc3ccccc31)c1ccccc12 [MK-801],block of Abeta oligomer effects (decrease of intracellular formazan-filled vesicles),[2],none were active
"CC12CC3CC(C)(C1)CC(N)(C3)C2 [Memantine, memantine]",inhibition at 28 µM,[3],50%
C[N+](C)(C)CCCCCC[N+](C)(C)C [hexamethonium bromide],block of Abeta oligomer effects (decrease of intracellular formazan-filled vesicles),[2],none were active
O[C@H]1[C@H](O)[C@@H](O)[C@H](O)[C@@H](O)[C@@H]1O [scyllo-inositol],block of Abeta oligomer effects (decrease of intracellular formazan-filled vesicles),[2],none were active

# From patent US9192585B2, “Inhibitors of cognitive decline” (Cognition Therapeutics, Inc., priority 2009, dated 2015)
